In brackets after ≈: the same amount, converted by molar mass. Blank lines part the entries; values can stand above or below the compound they belong to.
Key:
BV-2 [1] = assay: Anti-inflammatory activity in mouse BV-2 cells assessed as inhibition of LPS-induced NO production preincubated with compound for 1 hrs followed by LPS stimulation and measured after 24 hrs by Griess reagent based assay; type: functional, cell-based
J774.A1 = assay: Anti-inflammatory activity in mouse J774.A1 cells assessed as suppression of LPS-induced IL-6 production by ELISA analysis; type: functional, cell-based
RAW264.7 [2] = assay: Antiinflammatory activity in mouse RAW264.7 cells assessed as suppression of LPS-induced iNOS expression preincubated with compound for 1 hrs followed by LPS-stimulation and measured after 24 hrs by Western blot analysis; type: functional, cell-based
[3] = molecular target: T1, Polyunsaturated fatty acid 5-lipoxygenase (Homo sapiens) (UniProt P09917); assay: Inhibition of 5-Lipoxygenase (unknown origin) at 30 uM relative to control
T1 sequence (whole entry): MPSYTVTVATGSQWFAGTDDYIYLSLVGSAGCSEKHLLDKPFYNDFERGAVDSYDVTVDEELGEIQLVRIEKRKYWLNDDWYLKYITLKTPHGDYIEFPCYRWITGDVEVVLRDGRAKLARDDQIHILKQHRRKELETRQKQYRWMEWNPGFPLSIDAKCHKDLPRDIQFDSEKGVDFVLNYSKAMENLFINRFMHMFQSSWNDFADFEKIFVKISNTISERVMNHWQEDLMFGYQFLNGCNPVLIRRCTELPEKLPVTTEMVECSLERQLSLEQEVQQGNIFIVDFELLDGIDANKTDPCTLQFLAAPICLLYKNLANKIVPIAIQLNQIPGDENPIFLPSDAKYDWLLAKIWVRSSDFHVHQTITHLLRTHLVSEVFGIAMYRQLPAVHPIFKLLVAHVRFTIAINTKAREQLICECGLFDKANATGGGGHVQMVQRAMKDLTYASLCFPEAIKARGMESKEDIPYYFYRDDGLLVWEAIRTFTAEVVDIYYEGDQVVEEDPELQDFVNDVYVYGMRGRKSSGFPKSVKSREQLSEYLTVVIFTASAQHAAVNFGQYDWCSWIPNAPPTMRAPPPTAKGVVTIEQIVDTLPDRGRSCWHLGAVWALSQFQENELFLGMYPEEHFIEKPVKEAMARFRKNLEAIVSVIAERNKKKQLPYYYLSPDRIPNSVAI

RAW264.7 [4] = assay: Anti-inflammatory activity in mouse RAW264.7 cells assessed as inhibition of LPS-induced NO production at 20 uM by Griess reagent based analysis relative to control; type: functional; design: scale not given: the % may be the effect or the level left
RAW264.7 [5] = assay: Anti-inflammatory activity in mouse RAW264.7 cells assessed as reduction in LPS-induced NO production by ELISA analysis; type: functional, cell-based
RAW264.7 [6] = assay: Anti-inflammatory activity in LPS-stimulated mouse RAW264.7 cells assessed as inhibition of NO production incubated for 24 hrs by Griess reagent based assay; type: functional, cell-based; details: RAW264.7, 24 h
Peritoneal macrophage [7] = assay: Anti-inflammatory activity against LPS-stimulated mouse peritoneal macrophage assessed as reduction in nitric oxide production; type: functional, cell-based
BV-2 [8] = assay: Anti-inflammatory activity in mouse BV-2 cells assessed as reduction in LPS-induced NO production pretreated for 1 hr followed by LPS-stimulation and measured after 18 hrs by 2,3-diaminonaphthalene reagent based fluorescence analysis; type: functional, cell-based
BV-2 [9] = assay: Anti-inflammatory activity in mouse BV-2 cells assessed as reduction in LPS-induced NO production; type: functional, cell-based
THP-1 = assay: Anti-inflammatory activity in human THP-1 cells assessed as inhibition of LPS-stimulated NO production by ELISA analysis; type: functional, cell-based
Neutrophil [10] = assay: Inhibition of fMLF/CB-induced human Neutrophil activation assessed as reduction in superoxide anion at 10 uM relative to control; type: functional; design: scale not given: the % may be the effect or the level left
Neutrophil [11] = assay: Inhibition of fMLF/CB-induced human Neutrophil activation assessed as reduction in superoxide anion; type: functional, cell-based
Neutrophil [12] = assay: Inhibition of fMLF/CB-induced human Neutrophil activation assessed as reduction in elastase release; type: functional, cell-based
BV-2 [13] = assay: Antineuroinflammatory activity in LPS-induced mouse BV-2 cells assessed as inhibition of iNOS production at 50 uM pre-incubated for 2 hr followed by LPS-stimulation measured for 24 hrs by Western blot analysis; type: functional; design: scale not given: the % may be the effect or the level left; details: time 26 hrs
[14] = Inhibition of TNF-alpha induced NF-kappaB activation in HEK293-A cells incubated for 15 mins by Western blot analysis; type: cell-based; details: Homo sapiens, HEK293, 0.25 h
RAW264.7 [15] = assay: Anti-inflammatory activity in mouse RAW264.7 cells assessed as inhibition of LPS-induced iNOS mRNA expression; type: functional, cell-based
BMDM = assay: Antiinflammatory activity in LPS-stimulated mouse BMDM cells assessed as inhibition of NF-kappaB signalling pathway incubated for 3 hrs by Western blot analysis; type: functional, cell-based
Peritoneal macrophage [16] = assay: Antiinflammatory activity in mouse peritoneal macrophages assessed as fold reduction in LPS-induced TNFalpha level at 20 uM incubated for 4 hrs by ELISA method; type: functional
Mus musculus = assay: Anti-inflammatory activity in mouse model of xylene-induced auricle edema assessed as inhibition of ear swelling at 50 mg/kg, IG pre-treated for 1 hr followed by xylene addition and measured after 1 hr relative to control; type: functional; design: scale not given: the % may be the effect or the level left
Neutrophil [17] = assay: Inhibition of fMLF/CB-induced human Neutrophil activation assessed as reduction in elastase release using MeO-Suc-Ala-Ala-Pro-Val-pnitroanilide as substrate pre-incubated for 2 mins followed by fMLF/CB-stimulation and measured for 5 mins; type: functional, cell-based
Neutrophil [18] = assay: Inhibition of fMLF/CB-induced human Neutrophil activation assessed as reduction in superoxide anion generation pre-incubated for 2 mins prior to CB induction for 3 mins followed by fMLF addition by spectrophotometric analysis; type: functional, cell-based
HEK293 = assay: Anti-inflammatory activity against TNFalpha-induced HEK293 cells assessed as inhibition of NF-kappaB activity pre-indubated for 1 hr followed by TNFalpha treatment measured for 5 hrs by luciferase based assay; type: functional, cell-based; details: Homo sapiens

Structure (SMILES): COc1cc(O)c2c(=O)c(OC)c(-c3ccc(OC)c(O)c3)oc2c1 [AYANIN]
IC50 (BV-2 [1]): 25.1 µM
IC50 (J774.A1): 17.8 µM

Structure (SMILES): CC1=C(O)C(=O)C=C2C1=CC=C1[C@@]2(C)CC[C@@]2(C)[C@@H]3C[C@](C)(C(=O)O)CC[C@]3(C)CC[C@]12C [CELASTROL]
IC50 (RAW264.7 [2]): 1000 nM

Structure (SMILES): COc1cc2oc(-c3ccc(O)c(O)c3)cc(=O)c2c(O)c1OC [CIRSILIOL]
inhibition [3]: 48.5%
Activity (RAW264.7 [4]): 54%

Structure (SMILES): COc1ccc(-c2cc(=O)c3c(OC)c(OC)c(OC)c(OC)c3o2)cc1OC [NOBILETIN]
Activity (BV-2 [13]): 71.2%

Structure (SMILES): COc1ccc(-c2cc(=O)c3c(OC)c(OC)c(OC)cc3o2)cc1OC [SINENSETIN]
Activity (Mus musculus): 58%

Structure (SMILES): COc1cc(O)c2c(=O)cc(-c3ccc(O)c(OC)c3)oc2c1 [VELUTIN]
IC50 (Neutrophil [17]): ≤ 15.2 µM
IC50 (Neutrophil [18]): ≤ 12.5 µM

Structure (SMILES): COc1c(O)cc(O)c2c(=O)cc(-c3ccccc3)oc12 [WOGONIN]
IC50 (HEK293): 28.1 µM

Second part, led by results:

IC50 (RAW264.7 [2]): 3100 nM
Structure (SMILES): COc1cc(-c2cc(=O)c3c(O)cc(O)cc3o2)ccc1O [CHRYSOERIOL]

IC50 (RAW264.7 [5]): 17.6 µM
IC50 (RAW264.7 [6]): 8.5 µM
IC50 (Peritoneal macrophage [7]): 148 µM
IC50 (BV-2 [8]): 55.4 µM
IC50 (BV-2 [9]): 15.2 µM
IC50 (THP-1): 19.4 µM
Structure (SMILES): COc1ccc2c(c1)c(CC(=O)O)c(C)n2C(=O)c1ccc(Cl)cc1 [INDOMETHACIN]

IC50 (Peritoneal macrophage [7]): 23.6 µM
Structure (SMILES): COc1ccc(-c2coc3cc(O)c(OC)c(O)c3c2=O)cc1 [IRISOLIDONE]

IC50 (Neutrophil [11]): 1100 nM
IC50 (Neutrophil [12]): 3.2 µM
Structure (SMILES): O=c1cc(N2CCOCC2)oc2c(-c3ccccc3)cccc12 [LY-294002]
Activity (Neutrophil [10]): 96.5%

IC50 (J774.A1): 8.7 µM
Structure (SMILES): CC(C)(O)c1ccccc1CC[C@@H](SCC1(CC(=O)O)CC1)c1cccc(/C=C/c2ccc3ccc(Cl)cc3n2)c1 [MONTELUKAST]

IC50 [14]: 3.9 µM
Structure (SMILES): COc1c(O)cc2oc(-c3ccccc3)cc(=O)c2c1O [OROXYLIN A]

IC50 (RAW264.7 [15]): 7.2 µg/mL (≈ 17.8 µM)
IC50 (BMDM): 12 µg/mL (≈ 29.7 µM)
Structure (SMILES): CC(C)=CCc1c2c(c3occ(-c4ccc(O)cc4)c(=O)c3c1O)C=CC(C)(C)O2 [OSAJIN]
fold change (FC) (Peritoneal macrophage [16]): 1.8

IC50 (RAW264.7 [15]): 6.4 µg/mL (≈ 15.2 µM)
IC50 (BMDM): 13 µg/mL (≈ 30.9 µM)
Structure (SMILES): CC(C)=CCc1c2c(c3occ(-c4ccc(O)c(O)c4)c(=O)c3c1O)C=CC(C)(C)O2 [POMIFERIN]
fold change (FC) (Peritoneal macrophage [16]): 1.5
